According to publication PMC3162300 (Journal of Natural Products, 2011):
Marks after values point to notes of the source that are not given here.

Experiments:
5-LO = biological target: T1, 5-LO (Homo sapiens, UniProt P09917); assay type: cell-based; conditions: read-out: inhibition of leukotriene formation
T1 sequence (P09917 1-674): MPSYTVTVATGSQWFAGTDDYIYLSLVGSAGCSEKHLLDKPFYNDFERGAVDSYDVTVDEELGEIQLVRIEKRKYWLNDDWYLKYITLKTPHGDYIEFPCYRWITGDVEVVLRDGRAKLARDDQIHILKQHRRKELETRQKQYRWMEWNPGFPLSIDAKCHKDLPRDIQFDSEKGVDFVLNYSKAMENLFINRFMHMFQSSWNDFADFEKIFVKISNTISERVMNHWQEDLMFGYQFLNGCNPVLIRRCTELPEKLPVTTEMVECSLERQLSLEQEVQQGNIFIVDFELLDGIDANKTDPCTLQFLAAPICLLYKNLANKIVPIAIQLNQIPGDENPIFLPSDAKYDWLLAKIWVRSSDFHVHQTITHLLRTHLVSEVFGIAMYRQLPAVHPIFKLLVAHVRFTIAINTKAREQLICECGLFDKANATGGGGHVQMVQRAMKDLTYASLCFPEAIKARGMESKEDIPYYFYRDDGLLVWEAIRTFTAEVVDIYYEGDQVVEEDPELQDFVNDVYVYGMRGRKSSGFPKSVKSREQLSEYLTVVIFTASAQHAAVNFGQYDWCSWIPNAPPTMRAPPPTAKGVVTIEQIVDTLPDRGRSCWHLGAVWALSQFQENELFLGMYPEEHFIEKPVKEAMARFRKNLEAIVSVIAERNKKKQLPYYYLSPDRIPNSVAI

[1] = system: croton oil-induced ear dermatitis (edema); experiment: Croton oil-induced mouse ear dermatitis: edematous response
IKK2 = biological target: T2, IKK2 (Homo sapiens, UniProt O14920); experiment: IKK2 enzymatic activity assay; assay type: biochemical; conditions: 400 nM
T2 sequence (O14920 1-756): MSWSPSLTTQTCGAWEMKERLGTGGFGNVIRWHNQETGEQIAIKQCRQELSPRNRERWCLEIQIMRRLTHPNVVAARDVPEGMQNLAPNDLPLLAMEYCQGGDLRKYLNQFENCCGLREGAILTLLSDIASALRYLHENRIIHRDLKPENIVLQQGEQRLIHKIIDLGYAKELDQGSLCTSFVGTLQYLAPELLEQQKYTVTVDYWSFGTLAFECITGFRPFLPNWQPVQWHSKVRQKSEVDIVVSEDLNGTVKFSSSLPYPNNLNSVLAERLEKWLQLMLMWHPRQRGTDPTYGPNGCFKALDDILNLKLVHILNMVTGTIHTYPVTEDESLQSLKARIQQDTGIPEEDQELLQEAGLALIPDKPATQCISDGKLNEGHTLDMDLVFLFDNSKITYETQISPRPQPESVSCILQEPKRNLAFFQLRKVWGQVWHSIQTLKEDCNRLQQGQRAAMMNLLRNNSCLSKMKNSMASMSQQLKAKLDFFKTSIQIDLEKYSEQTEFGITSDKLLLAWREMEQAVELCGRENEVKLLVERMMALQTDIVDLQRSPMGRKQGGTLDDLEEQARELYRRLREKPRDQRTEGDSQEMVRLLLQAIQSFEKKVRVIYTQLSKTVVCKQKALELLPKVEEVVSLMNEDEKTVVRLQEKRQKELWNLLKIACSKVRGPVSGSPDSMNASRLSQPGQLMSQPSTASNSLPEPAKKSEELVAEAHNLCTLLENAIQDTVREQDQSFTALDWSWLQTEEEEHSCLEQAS

[2] = system: croton oil-induced ear dermatitis (ear tissue histology); experiment: Histological analysis of ear tissue after croton oil dermatitis
COX-2 = biological target: T3, COX-2 (Ovis aries, UniProt P79208); experiment: COX-2 inhibition assay; assay type: biochemical, sheep; conditions: read-out: inhibition of COX-2
T3 sequence (P79208 17-603): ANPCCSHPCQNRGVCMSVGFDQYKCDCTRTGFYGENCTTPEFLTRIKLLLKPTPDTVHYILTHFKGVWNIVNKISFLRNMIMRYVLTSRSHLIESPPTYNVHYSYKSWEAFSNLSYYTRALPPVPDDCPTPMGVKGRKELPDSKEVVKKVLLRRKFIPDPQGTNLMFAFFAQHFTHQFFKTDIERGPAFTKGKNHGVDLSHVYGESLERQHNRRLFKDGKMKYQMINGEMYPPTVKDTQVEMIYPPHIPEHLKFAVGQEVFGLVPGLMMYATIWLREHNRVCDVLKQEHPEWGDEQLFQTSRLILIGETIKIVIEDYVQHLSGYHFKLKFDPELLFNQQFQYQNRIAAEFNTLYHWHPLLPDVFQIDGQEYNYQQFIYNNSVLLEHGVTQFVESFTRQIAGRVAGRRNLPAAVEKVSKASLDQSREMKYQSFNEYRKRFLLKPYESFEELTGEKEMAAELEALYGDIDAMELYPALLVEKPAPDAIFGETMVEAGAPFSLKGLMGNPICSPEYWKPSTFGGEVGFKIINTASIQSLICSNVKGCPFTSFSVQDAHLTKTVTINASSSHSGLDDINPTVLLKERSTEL

[3] = DPPH free-radical-scavenging assay; conditions: up to 100 μM
COX-1 = biological target: T4, COX-1 (Ovis aries, UniProt P05979); experiment: COX-1 inhibition assay; assay type: biochemical, ram; conditions: read-out: inhibition of COX-1
T4 sequence (P05979 25-600): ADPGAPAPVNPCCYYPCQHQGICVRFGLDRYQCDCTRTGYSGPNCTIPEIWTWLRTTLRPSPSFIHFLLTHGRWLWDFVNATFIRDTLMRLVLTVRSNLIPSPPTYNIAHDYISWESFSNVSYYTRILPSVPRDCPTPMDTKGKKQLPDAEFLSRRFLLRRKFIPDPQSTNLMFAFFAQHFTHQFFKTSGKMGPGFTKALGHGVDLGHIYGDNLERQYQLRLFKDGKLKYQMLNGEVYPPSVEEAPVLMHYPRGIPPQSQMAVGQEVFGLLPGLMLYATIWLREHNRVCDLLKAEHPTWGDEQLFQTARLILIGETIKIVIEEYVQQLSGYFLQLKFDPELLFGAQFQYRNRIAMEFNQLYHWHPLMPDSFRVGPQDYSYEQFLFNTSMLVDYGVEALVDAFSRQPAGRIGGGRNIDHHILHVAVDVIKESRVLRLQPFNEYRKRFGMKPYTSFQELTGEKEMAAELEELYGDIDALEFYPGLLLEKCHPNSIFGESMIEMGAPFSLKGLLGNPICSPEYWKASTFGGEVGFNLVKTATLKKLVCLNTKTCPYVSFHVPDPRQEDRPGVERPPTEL

[4] = dose giving 50% inhibition of edema, 6 h, topical
[5] = topical dose 0.10 μmol/cm^2, 6 h
[6] = topical dose 0.30 μmol/cm^2, 6 h
[7] = topical dose 1.00 μmol/cm^2, 6 h

Row | inhibition at 50 µM (5-LO) | inhibition at 50 µM (COX-2) | inhibition at 50 µM (COX-1) | SMILES | ID50 (μg/cm^2) [1, 4] | edema (mg) mean ± SE [1, 5] | edema (mg) mean ± SE [1, 6] | edema (mg) mean ± SE [1, 7] | effect on IKK2 enzymatic activity (IKK2) | ID50 (μmol/cm^2) [1, 4] | histological finding in ear tissue ([2]; 0.04 μmol/cm^2, 3-48 h) | edema (mg) mean ± SE ([1]; topical dose 0.01 μmol/cm^2, 6 h) | edema (mg) mean ± SE ([1]; topical dose 0.03 μmol/cm^2, 6 h) | effect in DPPH assay [3] | histological finding in ear tissue ([2]; 0.4 μmol/cm^2, 3-48 h)
1 | 80.2 to 94.6% | – | – | COc1cc(O)ccc1-c1cc2cc(CCCO)ccc2o1 [compound 1, 5-(3-hydroxypropyl)-2-(2-methoxy-4-hydroxyphenyl)benzofuran] | 134 μg/cm^2 | 6.0 ± 0.3 ^a mg | 4.7 ± 0.3 ^a mg | 1.7 ± 0.1 ^a mg | – | – | – | – | – | – | –
2 | – | 57.2 to 83.3% | 57.2 to 83.3% | C/C=C/c1ccc2oc(-c3ccc(O)cc3)c(C)c2c1 [compound 11, rataniaphenol II] | 106 μg/cm^2 | 6.0 ± 0.4 mg | 4.0 ± 0.2 ^a mg | 1.7 ± 0.2 ^a mg | – | – | – | – | – | no effect | –
3 | 80.2 to 94.6% | – | – | C/C=C/c1ccc2c(c1)[C@@H](C)[C@H](c1ccc(O)cc1)O2 [compound 7, (+)-conocarpan] | 82 μg/cm^2 | 5.2 ± 0.4 ^a mg | 3.8 ± 0.2 ^a mg | 1.3 ± 0.1 ^a mg | – | – | – | – | – | no effect | general reduction of these vascular and cellular changes due to inflammation
4 | – | 57.2 to 83.3% | 57.2 to 83.3% | C/C=C/c1ccc2oc(-c3ccc(O)cc3)cc2c1 [compound 8, 2-(4-hydroxyphenyl)-5-(E)-propenylbenzofuran] | 110 μg/cm^2 | 5.9 ± 0.3 ^a mg | 4.5 ± 0.3 ^a mg | 1.8 ± 0.3 ^a mg | – | – | – | – | – | no effect | –
5 | 80.2 to 94.6% | – | – | COc1ccc(-c2cc3cc(CCCO)ccc3o2)c(O)c1 [compound 5, 2-(2-hydroxy-4-methoxyphenyl)-5-(3-hydroxypropyl)benzofuran] | 107 μg/cm^2 | 5.2 ± 0.3 ^a mg | 3.4 ± 0.2 ^a mg | 2.3 ± 0.2 ^a mg | – | – | – | – | – | – | general reduction of these vascular and cellular changes due to inflammation
6 | – | 57.2 to 83.3% | 57.2 to 83.3% | C/C=C/c1ccc2oc(-c3ccc(O)cc3OC)cc2c1 [compound 9, rataniaphenol III] | 134 μg/cm^2 | 6.1 ± 0.2 mg | 4.4 ± 0.3 ^a mg | 2.1 ± 0.3 ^a mg | – | – | – | – | – | – | –
7 | – | 57.2 to 83.3% | 57.2 to 83.3% | C/C=C/c1ccc2oc(-c3ccc(O)cc3O)cc2c1 [compound 6, 2-(2,4-dihydroxyphenyl)-5-(E)-propenylbenzofuran] | 160 μg/cm^2 | 5.9 ± 0.3 ^a mg | 4.9 ± 0.3 ^a mg | 2.5 ± 0.3 ^a mg | – | – | – | – | – | – | –

Second part, the molecule before the results:

Row | SMILES | inhibition at 50 µM (5-LO) | inhibition at 50 µM (COX-2) | inhibition at 50 µM (COX-1) | ID50 (μg/cm^2) [1, 4] | edema (mg) mean ± SE [1, 5] | edema (mg) mean ± SE [1, 6] | edema (mg) mean ± SE [1, 7] | effect on IKK2 enzymatic activity (IKK2) | ID50 (μmol/cm^2) [1, 4] | histological finding in ear tissue ([2]; 0.04 μmol/cm^2, 3-48 h) | edema (mg) mean ± SE ([1]; topical dose 0.01 μmol/cm^2, 6 h) | edema (mg) mean ± SE ([1]; topical dose 0.03 μmol/cm^2, 6 h) | effect in DPPH assay [3] | histological finding in ear tissue ([2]; 0.4 μmol/cm^2, 3-48 h)
8 | NC(=O)Nc1sc(-c2ccc(F)cc2)cc1C(N)=O [IKK2 inhibitor IV] | – | – | – | – | – | – | – | completely suppressed IKK2 enzymatic activity to the background level | – | – | – | – | – | –
9 | C/C=C/c1ccc2c(c1)C(CO)[C@@H](c1ccc(O)cc1)O2 (stereo in doubt) [compound 4, (2S,3S)-2,3-dihydro-3-hydroxymethyl-2-(4-hydroxyphenyl)-5-(E)-propenylbenzofuran] | – | – | – | 118 μg/cm^2 | 5.7 ± 0.4 ^a mg | 4.4 ± 0.3 ^a mg | 1.7 ± 0.2 ^a mg | – | 0.42 μmol/cm^2 | – | – | – | – | –
10 | C[C@]12CCC(=O)C=C1CC[C@@H]1[C@@H]2[C@@H](O)C[C@@]2(C)[C@H]1CC[C@]2(O)C(=O)CO [hydrocortisone, reference compound] | – | – | – | 11 μg/cm^2 | 1.6 ± 0.2 ^a mg | – | – | – | – | attenuation of all the vascular and cellular signs of inflammation | 4.9 ± 0.3 ^a mg | 3.1 ± 0.3 ^a mg | – | –
11 | C[C@@H]1[C@H](C)[C@@H](c2ccc(O)cc2)O[C@H]1c1ccc(O)cc1 [compound 3, meso-3,3′-didemethoxynectandrin B] | – | – | – | 102 μg/cm^2 | 5.9 ± 0.3 ^a mg | 3.3 ± 0.3 ^a mg | 1.9 ± 0.2 ^a mg | – | – | – | – | – | – | –
12 | C[C@@H]1[C@H](C)[C@@H](c2ccc(O)cc2)O[C@@H]1c1ccc(O)cc1 [compound 2, (−)-larreatricin] | – | – | – | 131 μg/cm^2 | 5.6 ± 0.3 ^a mg | 4.2 ± 0.4 ^a mg | 2.3 ± 0.2 ^a mg | – | – | – | – | – | – | –
13 | C/C=C/c1ccc2oc(-c3ccc(OC)cc3O)cc2c1 [compound 10, rataniaphenol I] | – | – | – | 160 μg/cm^2 | 6.2 ± 0.3 mg | 4.6 ± 0.3 ^a mg | 2.5 ± 0.3 ^a mg | – | – | – | – | – | – | –
14 | COc1ccc2c(c1)c(CC(=O)O)c(C)n2C(=O)c1ccc(Cl)cc1 [indomethacin, reference compound] | – | – | – | 104 μg/cm^2 | 5.2 ± 0.4 ^a mg | 3.4 ± 0.3 ^a mg | 1.4 ± 0.2 ^a mg | – | – | – | – | – | – | reduced mast cell degranulation and leukocyte infiltration at all observation times
